Laboratory results as given in US6008240A, “2-(1H-4(5)-imidazoyl) cyclopropyl derivatives” (Gliatech, Inc., priority 1997, dated 1999).
Structures can show the parent of a compound that is named as a salt.

biological target: T1, Histamine H3 Receptor (Rattus norvegicus, UniProt Q9QYN8); assay: In Vitro Histamine H3 Receptor Binding Analysis ([3H]-Nα-methylhistamine, rat cortical membranes); conditions: not given
T1 construct: from tissue; host or cells: rat cerebral cortex membranes
Experimental: Histamine H3 receptor affinity was determined in rat cortical membranes using the H3 selective agonist ligand, [^3 H]-N^α -methylhistamine (78.9 Ci/mmole, DuPont NEN Research Products, Boston, Mass.) according to the method of West et al., (1990) Mol. Pharmacol. 38: 610-613 with modifications. Briefly, animals were sacrificed by decapitation and the cerebral cortex was rapidly removed. Rat cortices were mechanically homogenized with an Omni 1000 motor driven homogenizer in 10 volumes (wt/vol) of Krebs-Ringers Hepes buffer (pH 7.4) containing the following protease inhibitors; EDTA (10 mmol), PMSF (0.1 mM), chymostatin (0.2 mg/50 mL) and leupeptin (0.2 mg/50 mL). The homogenate was centrifuged in a Sorvall at ~40,000 x g for 30 min. The pellet was resuspended by mechanical homogenization in 25 mL water and lysed on ice for 30 min. The homogenate was recentrifuged and the membrane lysis was repeated. The membranes were recentrifuged and the final pellet was resuspended in 14 volumes of water to give approximately 200 μg protein/100 μl final concentration. The suspension was stored at -80° C. prior to use. Protein concentrations were determined by Coomassie Plus Protein Assay (Pierce, Rockford, Ill.).
Nonspecific binding (NSB) was accounted for by the inclusion of thioperamide (10 μM). Samples were incubated for 40 minutes at 25° C. The samples were filtered through glass fiber strips, pre-washed with 0.3% polyethyleneimine, using a Brandell cell harvester. The filters were rapidly washed three times with 4 ml of 25 mM Tris buffer containing 145 mM NaCl (pH 7.4, 4° C.). Filters were transferred to polyethylene minivials and counted in 3.5 ml of scintillation fluid (Ecolume, ICN Biomedicals, Inc.). Using this procedure, the non-specific binding was less than 10% of the total binding and the binding to the glass fiber filters was negligible. Saturation and competition experiments were analyzed with the ReceptorFit saturation and competition curve fitting programs (Lundon Software, Inc., Cleveland, Ohio).

T1 sequence (Q9QYN8 whole entry): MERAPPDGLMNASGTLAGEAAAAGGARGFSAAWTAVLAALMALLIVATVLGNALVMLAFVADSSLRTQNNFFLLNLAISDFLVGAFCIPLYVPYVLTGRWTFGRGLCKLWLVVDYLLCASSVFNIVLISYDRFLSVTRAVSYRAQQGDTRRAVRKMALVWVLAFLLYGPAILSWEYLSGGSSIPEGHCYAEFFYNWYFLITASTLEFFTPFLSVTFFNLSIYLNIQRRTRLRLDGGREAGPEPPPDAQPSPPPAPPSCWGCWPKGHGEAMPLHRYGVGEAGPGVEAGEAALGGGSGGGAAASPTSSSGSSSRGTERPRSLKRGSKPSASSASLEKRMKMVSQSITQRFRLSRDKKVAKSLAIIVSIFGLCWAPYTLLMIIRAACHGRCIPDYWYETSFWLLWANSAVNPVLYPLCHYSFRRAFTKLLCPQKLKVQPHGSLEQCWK

SMILES	Ki [nM]
C[C@@H](NC(=O)[C@@H]1C[C@H]1c1cnc[nH]1)C1CCCCC1 (mixture of isomers) [Example 6, N-[(R)-1-cyclohexylethyl]-3-(1H-imidazol-4-yl)-trans-(2R,3R)-cyclopropanamide and N-[(R)-1-cyclohexylethyl]-3-(1H-imidazol-4-yl)-trans-(2S,3S)-cyclopropanamide hydrochloride]	70 ± 8.6
O=C(CCCC1CCCCC1)[C@@H]1C[C@H]1c1c[nH]cn1 (racemic) [Example 10, (±)-trans-4-cyclohexyl-1-(2-imidazol-4-ylcyclopropyl) butan-1-one]	97 ± 21
C(#C[C@@H]1C[C@H]1c1c[nH]cn1)CCC1CCCC1 (racemic) [Example 54, (±)-trans-4-(2-(4-Cyclopentylbut-1-ynyl)cyclopropyl)imidazole]	1.43 ± 0.33
C(#C[C@@H]1C[C@H]1c1c[nH]cn1)CCC1CCCCC1 (racemic) [Example 55, (±)trans-4-(2-(4-cyclohexylbut-1-ynyl)cyclopropyl)imidazole]	1.8 ± 0.64
O=C(NCc1ccccc1)[C@@H]1C[C@H]1c1c[nH]cn1 (relative stereo) [Example 1, N-(1-benzyl)-3-[(1H-imidazol-4-yl)]-(2R,3R)-trans-cyclopropanamide and N-(1-benzyl)-3-[(1H-imidazol-4-yl)]-(2S,3S)-trans-cyclopropanamide hydrochloride]	53 ± 2
O=C(NCC1CCCCC1)[C@@H]1C[C@H]1c1c[nH]cn1 (relative stereo) [Example 2, (±)-trans-N-(cyclohexylmethyl)(2-imidazol-4-ylcyclopropyl)formamide]	37 ± 4
C(=C/[C@@H]1C[C@H]1c1c[nH]cn1)/CCC1CCCCC1 (relative stereo) [Example 16, (±)-trans4-(2-(4-Cyclohexylbut-cis-1-enyl)cyclopropyl)imidazole]	12.2 ± 1
O=C(N[C@@H]1C[C@H]1c1c[nH]cn1)OCc1ccccc1 (relative stereo) [Example 26, (±)-trans-N-(2-imidazol-4-ylcyclopropyl)(phenylmethoxy)formamide]	5.8 ± 0.4
O=C(NCCCC1CCCCC1)[C@@H]1C[C@H]1c1c[nH]cn1 (relative stereo) [Example 29, N-[3-cyclohexylpropyl]-3(R)-[1H-imidazol-4-yl]-2(R)-cyclopropanamide and N-[3-cyclohexylpropyl]-3(S)-[1H-imidazol-4-yl]-2(S)-cyclopropanamide]	36 ± 8
CC(C)CCC#C[C@@H]1C[C@H]1c1cnc[nH]1 (relative stereo) [Example 40, (±)-4-(2-(5-Methylhex-1-ynyl)cyclopropyl)imidazole]	6.5 ± 1.5
C(#C[C@@H]1C[C@H]1c1cnc[nH]1)CCCCc1ccccc1 (relative stereo) [Example 41, (±)-4-(2-(6-Phenylhex-1-ynyl)cyclopropyl)imidazole]	16 ± 0.6
O=C(N[C@@H]1C[C@H]1c1c[nH]cn1)OCCC1CCCCC1 (relative stereo) [Example 46, (±)-trans-(Cyclohexylethoxy)-N-(2-imidazol-4-cyclopropyl) formamide]	29 ± 1.2

same assay, conditions: rat cortical membranes; 0.8-1.2 nM [3H]-Nα-methylhistamine; 40 minutes at 25° C.; pH 7.4; read-out: H3 Receptor Ki

SMILES	Ki [nM]
C[C@H](NC(=O)[C@@H]1C[C@H]1c1cnc[nH]1)C1CCCCC1 (mixture of isomers) [Example 7, N-[(S)-1-cyclohexylethyl]-3-(1H-imidazol-4-yl)- trans-(2R,3R)-cyclopropanamide and N-[(S)-1-cyclohexylethyl]-3-(1H-imidazol-4-yl)-trans-(2S,3S)-cyclopropanamide hydrochloride]	146 ± 13
CN(CC1CCCCC1)C(=O)[C@@H]1C[C@H]1c1c[nH]cn1 (racemic) [Example 11, (±)-trans-N-(cyclohexylmethyl)(2-imidazol-4-ylcyclopropyl)-N-methylformamide]	134 ± 1
c1nc([C@@H]2C[C@H]2COCCCC2CCCCC2)c[nH]1 (racemic) [Example 18, (±)-trans-(3-Cyclohexylpropoxy)(2-imidazol-4-ylcyclopropyl)methane]	240 ± 6
OC(CCCC1CCCCC1)[C@@H]1C[C@H]1c1c[nH]cn1 (mixture of isomers) [Example 19, (±)-trans4-Cyclohexyl-1-(2-imidazol-4-ylcyclopropyl)butan-1-ol]	160 ± 9
N[C@H](Cc1ccc(Br)cc1)C(=O)N[C@@H]1C[C@H]1c1c[nH]cn1 (racemic) [Example 43, (1R,2R)-trans-(±)-2-Amino-3-(4-bromophenyl)-N-(2-imidazol-4-ylcyclopropyl)propanamide]	13.7 ± 1.5
CC1CCCCN1CCCNC(=O)[C@@H]1C[C@H]1c1c[nH]cn1 (relative stereo) [Example 3, (±)-trans-(2-imidazol-4-ylcyclopropyl)-N-(3-((±)-2-methylpiperidyl)propyl)formamide]	659 ± 52
O=C(Nc1ccccc1)[C@@H]1C[C@H]1c1c[nH]cn1 (relative stereo) [Example 5, N-(phenyl)-3-(1H-imidazol-4-yl)-trans-(2R,3R)-cyclopropanamide and N-(phenyl)-3-(1H-imidazol-4-yl)-trans-(2S,3S)-cyclopropanamide hydrochloride]	267 ± 26
O=C(NCC12CC3CC(CC(C3)C1)C2)[C@@H]1C[C@H]1c1c[nH]cn1 (relative stereo) [Example 8, (±)-trans-N-(adamantanylmethyl) (2-imidazol-4-ylcyclopropyl)formamide]	55 ± 6
O=C(NCCc1ccccc1)[C@@H]1C[C@H]1c1c[nH]cn1 (relative stereo) [Example 9, (±)-trans-(2-imidazole-4-ylcyclopropyl)-N-(2-phenylethyl)formamide]	163 ± 19
O=C(NCC1CC1)[C@@H]1C[C@H]1c1c[nH]cn1 (relative stereo) [Example 32, (±)-trans-N-(Cyclopropylmethyl)(2-imidazol-4-ylcyclopropyl)formamide]	876 ± 158
O=C(NCCCc1ccccc1)[C@@H]1C[C@H]1c1c[nH]cn1 (relative stereo) [Example 33, (±)-trans-(2-imidazol-4-ylcyclopropyl)-N-(3-phenylpropyl) formamide]	197 ± 23
O=C(NCCc1c[nH]cn1)[C@@H]1C[C@H]1c1c[nH]cn1 (relative stereo) [Example 34, (±)-trans-(2-imidazol-4-ylcyclopropyl)-N-(2-imidazol-4-ylethyl) formamide]	227 ± 26
O=C(NCCc1c[nH]c2ccccc12)[C@@H]1C[C@H]1c1c[nH]cn1 (relative stereo) [Example 35, (±)-trans-(2-imidazol-4-ylcyclopropyl)-N-(2-indol-3-ylethyl) formamide]	441 ± 73
O=C(NCC(O)CC1CCCCC1)[C@@H]1C[C@H]1c1c[nH]cn1 (relative stereo) [Example 36, (±)-trans-N-(3-Cyclohexyl-2-(±)-hydroxypropyl)(2-imidazol-4-ylcyclopropyl)formamide]	145
O=C(NCCCCC1CCCCC1)[C@@H]1C[C@H]1c1c[nH]cn1 (relative stereo) [Example 37, (±)-trans-N-(4-Cyclohexylbutyl)(2-imidazol-4-ylcyclopropyl)formamide]	68 ± 9.1
CC(C)(C)CCC#C[C@@H]1C[C@H]1c1c[nH]cn1 (relative stereo) [Example 38, (±)-4-(2-(5,5-Dimethylhex-1-ynyl)cyclopropyl)imidazole]	0.33 ± 0.1
